We go through 13 compounds from patent US10414797B2, “Gelatinase inhibitors and use thereof” (Iproteos S.L, priority 2015, dated 2019).

The IC50 is the concentration that gives 50% inhibition.

Where a SMILES comes first, the peptide text is derived from it. [ ]: non-standard residue; d: D form. The star is where a group is joined. ξ: configuration not given here. NMeW = CN[C@@H](Cc1c[nH]c2ccccc12)C(=O)O; Benzoyl(3,5-F2) = O=C(c1cc(F)cc(F)c1)*; NMeIle(3ξ) = CCC(C)[C@H](NC)C(=O)O; NMeF = CN[C@@H](Cc1ccccc1)C(=O)O; NMeQ = CN[C@@H](CCC(N)=O)C(=O)O; NMeL = CN[C@@H](CC(C)C)C(=O)O; NMeA = CN[C@@H](C)C(=O)O; Dab = NCC[C@H](N)C(=O)O; Hexanoyl = CCCCCC(=O)*; Butyryl = CCCC(=O)*; Bz = O=C(c1ccccc1)*; NHOH = ON* Some results are limits rather than exact numbers.

The target of data set [1] is MMP-7 (Homo sapiens (Human), UniProt P09237). Nature of the data set: MMP-7 inhibition assay (fluorogenic peptide substrate). It counts as biochemical. To be noted: recombinant MMP-7 8.3 nM, Mca-PLGL-Dpa-AR-NH2 10 μM, 4 hours at room temperature; tested at 1, 10, 100 and 200 μM. The procedure: All the experiments were done in 1× reaction buffer, which was obtained from a 10× reaction buffer solution. The content of the 10× reaction buffer was: 50 mL of 0.5 M Tris-HCl, 1.5 M NaCl, 50 mM CaCl2 and 2 mM sodium azide at pH 7.6. To obtain the 1× reaction buffer 4 mL of the 10× reaction buffer were diluted in 36 mL of H2O.
Chain of MMP-7 (P09237 95-267): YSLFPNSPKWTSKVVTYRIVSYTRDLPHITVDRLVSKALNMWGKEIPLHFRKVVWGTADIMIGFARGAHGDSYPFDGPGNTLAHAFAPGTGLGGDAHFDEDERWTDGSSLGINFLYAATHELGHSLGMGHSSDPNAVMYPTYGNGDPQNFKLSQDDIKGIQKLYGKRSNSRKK
Recombinant MMP-7 expressed in E. Coli was obtained from Merck-Millipore (catalog number 44270). Mca-PLGL-Dpa-AR-NH2 (fluorogenic peptide substrate) was obtained from R&D Systems (catalog number ES001).
Preparation of the MMP-7 for the activity assay: MMP-7 was provided as a stock solution (2.1 mg/mL). The enzyme was diluted in water to a final concentration of 0.005 mg/mL.
MMP-7 peptide substrate was provided as a solid (1 mg). A 4 mM stock solution of the substrate in DMSO was obtained by adding 214.7 μL of DMSO. After which, a 100 μM solution of substrate was prepared in 1× reaction buffer.
Procedure: The enzymatic assays were performed in 96-well microtiter plate, which allowed simultaneous monitoring of multiple reactions. For each reaction, 84.6 μL of 1× reaction buffer (pH 7.6), 3.4 μL of MMP-7 (final concentration 8.3 nM) and 2 μL of the corresponding new compound were added to each well. A stock solution of new compound was prepared in DMSO (100 mM), and dilutions were prepared from this stock solution with DMSO. Finally, to the mixture contained in each well 10 μL of the substrate were added (final concentration 10 μM). The reaction was incubated for 4 hours at room temperature in an orbital shaker (90 rpm).
The inhibitory activity of the new compound was measured fluorimetrically. The excitation and emission wavelengths were 320 and 405 nm, respectively.
Inhibitory activity at several concentration points (1, 10, 100 and 200 μM) were measured for each compound. The inhibitory activity on MMP-1, MMP-3 and MMP-7 was calculated according to eq 1 and The IC50 value was calculated as explained above for MMP-2 and MMP-9.

The nature of data set [2]: Parallel artificial membrane permeability assay (PAMPA), Blood-Brain Barrier. It counts as in vitro ADME. To be noted: initial concentration 200 μM, pH 7.4, 4 hours; for Papp at 4 h, 200 µM: pig, read-out: Effective permeability Pe. On the procedure:
Parallel Artificial Membrane Permeability Assay (PAMPA)
Parallel artificial membrane permeability assay (PAMPA) described in Kansy et al., J. M. Chem. 1998; 41(7):1007-10 was used here to determine the capacity of compounds to cross the Blood-Brain Barrier (BBB) by passive diffusion (Di L et al., Eur. J. Med. Chem. 2003; 38(3):223-32). The effective permeability (Pe) of the compounds was measured at an initial concentration of 200 μM. The buffer solution was prepared from a commercial concentrated one following the manufacturer's instructions. pH was adjusted to 7.4 using a 0.5 M NaOH solution. A stock solution of new compound was prepared in DMSO and diluted with buffer solution to a final 200 μM concentration (0.5% DMSO content). The PAMPA sandwich was separated and each donor well was filled with […] of the compound solution. The acceptor plate was placed into the donor plate, ensuring that the underside of the membrane was in contact with buffer. 4 μL of the mixture of phospholipids (20 mg/ml) in dodecane was added to the filter of each well, and 200 μL of buffer solution was added to the each acceptor well. The plate was covered and incubated at room temperature in a saturated humidity atmosphere for 4 hours under orbital agitation at 100 rpm. After 4 hours, the contents of the acceptor and donor compartments were analyzed by HPLC: 150 μL of each well from the donor plate and 150 μL of each well from the acceptor plate were transferred to HPLC vials, injecting each sample into a reverse-phase C18 column (150 mm×4.6 mm×5 μm, 100 Å) (100 μL/injection from the acceptor wells, 10 μL/injection from the donor wells and for t0 references). Transport was also confirmed using mass spectrometry (MALDI-TOF).
The phospholipid mixture used was a porcine polar brain lipid extract, provided by Avanti polar lipids, with the following composition: 12.6% phosphatidylcholine (PC), 33.1% phosphatidylethanolamine (PE), 18.5% phosphatidylserine (PS), 4.1% phosphatidylinositol (PI), 0.8% phosphatidic acid and 30.9% of other compounds.
The effective permeability (Pe) after 4 hours was calculated using equation 2 and the percentage of transport (T %) was calculated using equation 3: […]
Ca(t) is the compound concentration in the acceptor well at time t
And Cd(t0) is the compound concentration in the donor well at t0.
In general terms: In PAMPA a lipid-coated filter parts donor from acceptor wells.

For `CCCCCC(=O)N1CCC[C@H]1C(=O)N(C)[C@H](C(=O)N[C@@H](CCNC(=O)c1cc(F)cc(F)c1)C(=O)NO)C(C)CC` (stereo partly drawn) [Example 3, (2S)—N-[(1S)-1-[[(1S)-3-[(3,5-difluorobenzoyl)amino]-1-(hydroxycarbamoyl)propyl]carbamoyl]-2-methyl-butyl]-1-hexanoyl-N-methyl-pyrrolidine-2-carboxamide], the half-inhibitory concentration (IC50) in data set [1] amounted to 6.61 µM. For the same compound, in data set [2], the “percentage of transport % T” value is 9.3% and the Papp at 4 h, 200 µM was determined as 2.3 ×10⁻⁶ cm/s.

Take `CCC(C)[C@@H](C(=O)N[C@@H](CCNC(=O)c1cc(F)cc(F)c1)C(=O)NO)N(C)C(=O)[C@@H]1CCCN1C(=O)CC(C)C` (stereo partly drawn) [Example 5, (2S)—N-[(1S)-1-[[(1S)-3-[(3,5-difluorobenzoyl)amino]-1-(hydroxycarbamoyl)propyl]carbamoyl]-2-methyl-butyl]-N-methyl-1-(3-methylbutanoyl)pyrrolidine-2-carboxamide]: in data set [1], the half-inhibitory concentration (IC50) worked out at 3.48 µM. Besides, in data set [2], the “percentage of transport % T” value came out at 7.6% and the Papp at 4 h, 200 µM turned out to be 1.9 ×10⁻⁶ cm/s.

As for `CCCC(=O)N1CCC[C@H]1C(=O)N(C)[C@H](C(=O)N[C@@H](CCNC(=O)c1cc(F)cc(F)c1)C(=O)NO)C(C)CC` (stereo partly drawn) [Example 4, (2S)-1-butanoyl-N-[(1S)-1-[[(1S)-3-[(3,5-difluorobenzoyl)amino]-1-(hydroxycarbamoyl)propyl]carbamoyl]-2-methyl-butyl]-N-methyl-pyrrolidine-2-carboxamide], the half-maximal inhibitory concentration (IC50) in data set [1] is 4.42 µM. Moreover, in data set [2], the “percentage of transport % T” value came to 3.1% and the Papp at 4 h, 200 µM was 0.74 ×10⁻⁶ cm/s.

In the case of `CCC(C)[C@@H](C(=O)N[C@@H](CCNC(=O)c1cc(F)cc(F)c1)C(=O)NO)N(C)C(=O)[C@@H]1CCCN1C(=O)[C@H](C)N(C)C(C)=O` (stereo partly drawn) [Example 12, (2 S)-1-[(2S)-2-[acetyl(methyl)amino]propanoyl]-N-[(1S)-1-[[(1S)-3-[(3,5-difluorobenzoyl)amino]-1-(hydroxycarbamoyl)propyl]carbamoyl]-2-methyl-butyl]-N-methyl-pyrrolidine-2-carboxamide] (Ac-[NMeA]P[NMeIle(3ξ)][Dab](Benzoyl(3,5-F2))-{NHOH}), in data set [1], the half-inhibitory concentration (IC50) worked out at 14.1 µM.

Turning to `CCCCCCCC(=O)N1CCC[C@H]1C(=O)N(C)[C@H](C(=O)N[C@@H](CCNC(=O)c1cc(F)cc(F)c1)C(=O)NO)C(C)CC` (stereo partly drawn) [Example 6, (2S)—N-[(1S)-1-[[(1S)-3-[(3,5-difluorobenzoyl)amino]-1-(hydroxycarbamoyl)propyl]carbamoyl]-2-methyl-butyl]-N-methyl-1-octanoyl-pyrrolidine-2-carboxamide], the half-maximal inhibitory concentration (IC50) in data set [1] was determined as 52.6 µM. For the same compound, in data set [2], the “percentage of transport % T” value was determined as 14.3% and the Papp at 4 h, 200 µM turned out to be 3.5 ×10⁻⁶ cm/s.

For the compound `CCCCCC(=O)N1CC(F)(F)C[C@H]1C(=O)N(C)[C@H](C(=O)N[C@@H](CCNC(=O)c1cc(F)cc(F)c1)C(=O)NO)C(C)CC` (stereo partly drawn) [Example 7, (2S)—N-[(1S)-1-[[(1S)-3-[(3,5-difluorobenzoyl)amino]-1-(hydroxycarbamoyl)propyl]carbamoyl]-2-methyl-butyl]-4,4-difluoro-1-hexanoyl-N-methyl-pyrrolidine-2-carboxamide], the IC50 in data set [1] came to 7.71 µM. Further, in data set [2], the “percentage of transport % T” value was 19.0% and the Papp at 4 h, 200 µM amounted to 11.3 ×10⁻⁶ cm/s.

For the compound `CCC(C)[C@@H](C(=O)N[C@@H](CCNC(=O)c1cc(F)cc(F)c1)C(=O)NO)N(C)C(=O)[C@@H]1CC(F)(F)CN1C(=O)CCCOc1ccccc1` (stereo partly drawn) [Example 10, (2S)—N-[(1S)-1-[[(1S)-3-[(3,5-difluorobenzoyl)amino]-1-(hydroxycarbamoyl)propyl]carbamoyl]-2-methyl-butyl]-4,4-difluoro-N-methyl-1-(4-phenoxybutanoyl)pyrrolidine-2-carboxamide], in data set [1], the half-maximal inhibitory concentration (IC50) is 8.08 µM. In data set [2], the “percentage of transport % T” value was found to be 13.6% and the Papp at 4 h, 200 µM turned out to be 7.6 ×10⁻⁶ cm/s.

With `CCCCCC(=O)N1CCC[C@H]1C(=O)N(C)[C@H](C(=O)N[C@@H](CCNC(=O)c1ccccc1)C(=O)NO)C(C)CC` (stereo partly drawn) [Example 15, (2S)—N-[(1S)-1-[[(1S)-3-benzamido-1-(hydroxycarbamoyl)propyl]carbamoyl]-2-methyl-butyl]-N-methyl-1-hexanoyl-pyrrolidine-2-carboxamide] (Hexanoyl-Pro-[NMeIle(3ξ)]-[Dab](Bz)-{NHOH}), the IC50 in data set [1] came to 41.2 µM. Further, in data set [2], the “percentage of transport % T” value was 2.3% and the Papp at 4 h, 200 µM amounted to 1.1 ×10⁻⁶ cm/s.

For the compound `CCCC(=O)N(C)[C@@H](Cc1c[nH]c2ccccc12)C(=O)N(C)[C@@H](CC(C)C)C(=O)N1CCC[C@H]1C(=O)N(C)[C@H](C(=O)N[C@@H](CCNC(=O)c1cc(F)cc(F)c1)C(=O)NO)C(C)CC` (stereo partly drawn) [Example 14, (2S)-1-[(2S)-2-[[(2S)-2-[butanoyl(methyl)amino]-3-(1H-indol-3-yl)propanoyl]-methyl-amino]-4-methyl-pentanoyl]-N-[(1S)-1-[[(1S)-3-[(3,5-difluorobenzoyl)amino]-1-(hydroxycarbamoyl)propyl]carbamoyl]-2-methyl-butyl]-N-methyl-pyrrolidine-2-carboxamide] (Butyryl-[NMeW][NMeL]P[NMeIle(3ξ)][Dab](Benzoyl(3,5-F2))-{NHOH}), the IC50 in data set [1] was found to be 61 µM.

Regarding `CCC(C)[C@@H](C(=O)N[C@@H](CCNC(=O)c1cc(F)cc(F)c1)C(=O)NO)N(C)C(=O)[C@@H]1CCCN1C(=O)CCN(C)C(C)=O` (stereo partly drawn) [Example 13, (2S)-1-[3-[acetyl(methyl)amino]propanoyl]-N-[(1S)-1-[[(1S)-3-[(3,5-difluorobenzoyl)amino]-1-(hydroxycarbamoyl)propyl]carbamoyl]-2-methyl-butyl]-N-methyl-pyrrolidine-2-carboxamide], in data set [1], the IC50 came to 50.4 µM.

Turning to `CCC(C)[C@@H](C(=O)N[C@@H](CCNC(=O)c1cc(F)cc(F)c1)C(=O)NO)N(C)C(=O)[C@@H]1CCCN1C(=O)[C@H](Cc1ccccc1)N(C)C(C)=O` (stereo partly drawn) [Example 11, (2 S)-1-[(2S)-2-[acetyl(methyl)amino]-3-phenyl-propanoyl]-N-[(1S)-1-[[(1S)-3-[(3,5-difluorobenzoyl)amino]-1-(hydroxycarbamoyl)propyl]carbamoyl]-2-methyl-butyl]-N-methyl-pyrrolidine-2-carboxamide] (Ac-[NMeF]P[NMeIle(3ξ)][Dab](Benzoyl(3,5-F2))-{NHOH}), the IC50 in data set [1] is 20.1 µM.

For the compound `CC(=O)N1CCC[C@H]1C(=O)N[C@@H](CCC(N)=O)C(=O)N[C@@H](Cc1c[nH]c2ccccc12)C(=O)NO` [Example C17, (2S)-2-[[(2S)-1-acetylpyrrolidine-2-carbonyl)amino]-N-[(1S)-2-(hydroxyamino)-1-(1H-indol-3-ylmethyl)-2-oxo-ethyl]pentanediamide, reference compound] (Ac-Pro-Gln-Trp-{NHOH}), in data set [1], the concentration for half-maximal inhibition (IC50) was above 2000 µM.

For `CC(=O)N1CCC[C@H]1C(=O)N(C)[C@@H](CCC(N)=O)C(=O)N[C@@H](Cc1c[nH]c2ccccc12)C(=O)NO` [Example C20, (2S)-2-[[(2S)-1-acetylpyrrolidine-2-carbonyl]-methyl-amino]-N-[(1S)-2-(hydroxyamino)-1-(1H-indol-3-ylmethyl)-2-oxo-ethyl]pentanediamide, reference compound] (Ac-Pro-[NMeQ]-Trp-{NHOH}), the IC50 in data set [1] was above 2000 µM.
